# Measured values reported in article PMC12566511, “The Evaluation of (1R,4R,7R,10R)-α,α′,α″,α‴-Tetramethyl-1,4,7,10-tetraazacyclododecane-1,4,7,10-tetraacetic Acid (DOTMA) as a Chelator for Zirconium-89” (Molecules, 2025).
# “Also recorded” adds a separate entry of the source.
# Legend:
# [1] = In vitro metal competition study; format: physicochemical; conditions: for % Intact of [^89Zr]Zr-Complex (n = 3): PBS pH 7.4, 37 °C, radio-ITLC
# Description: To separate solutions of metal cations (iron(III) chloride, cobalt(II) chloride, zinc(II) chloride, copper(II) chloride, magnesium(II) chloride, gallium(III) nitrate, and gadolinium(III) chloride) (1.0 mM, 200 μL), [^89Zr]Zr-DOTMA complex (0.1 mM, 20 μL, 110−119 μCi, 4.1–4.4 MBq) in PBS (pH 7.4) was added. The resulting solutions (n = 3) were incubated at 37 °C for 7 days in a thermomixer. Dissociation of ^89Zr from [^89Zr]Zr-DOTMA complex was monitored by radio-TLC at 0, 1, 3, 5, and 7 days using radio-TLC, Varian ITLC-SA strips, 50 mM EDTA (pH 5) as the mobile phase, and gamma counting. All studies were performed in triplicate.
# [2] = Biodistribution studies in non-tumor-bearing, normal mice; format: in vivo, female NIH Swiss mice; conditions: tail vein, n = 6
# Description: Female NIH Swiss mice (6–8 weeks old) were purchased from Inotiv, Lafayette, IN, USA. All animals were acclimated to a 12 h light/dark cycle and received food and water ad libitum for 5 days before any manipulations were performed. All animals were checked by veterinary staff daily to ensure well-being and proper environment and to monitor for signs of distress. Clinical signs of distress in laboratory rodents include decreased activity, pilo-erection, un-groomed appearance, excessive licking and scratching, self-mutilation, abnormal stance, hunched appearance, rapid or shallow respiration, grunting, dilated pupils, aggressiveness towards handler, high-pitched vocalizations, change in feeding activity, and attempts to separate from group. In the event of clinical distress, animals were euthanized after consulting the on-call veterinarian. To minimize suffering during the tail vain injection, animals were kept under deep isoflurane anesthesia. At the end point of the study, animals were anesthetized with isoflurane and were euthanized by cervical dislocation, which is consistent with the recommendations of the American Veterinary Medical Association Guidelines on Euthanasia.
# Biodistribution studies were conducted using a modified literature procedure. Briefly, female NIH Swiss mice (6–8 weeks old, n = 6/cohort; 30 animals total) were injected with [^89Zr]Zr-DOTMA (0.55 MBq (15 μCi)/mouse) via the tail vein and sacrificed at 2, 4, 24, 48, and 72 h p.i. Organs and tissues of interest were excised, weighed, and counted on a gamma counter. The percent injected dose per gram (%ID/g) was calculated by comparison to a weighed, counted standard for each group.
compound,measurement,setting,value
CC(C(=O)[O-])N1CCN(C(C)C(=O)[O-])CCN(C(C)C(=O)[O-])CCN(C(C)C(=O)[O-])CC1.[89Zr+4] (stereo not shown) [[^89Zr]Zr-DOTMA],% Intact of [^89Zr]Zr-Complex (n = 3),"[1]; Co^2+, 0 h",≥99.99%
same,% Intact of [^89Zr]Zr-Complex (n = 3),"[1]; Co^2+, 1 d",≥99.99%
same,% Intact of [^89Zr]Zr-Complex (n = 3),"[1]; Co^2+, 3 d",≥99.99%
same,% Intact of [^89Zr]Zr-Complex (n = 3),"[1]; Co^2+, 5 d",≥99.99%
same,% Intact of [^89Zr]Zr-Complex (n = 3),"[1]; Co^2+, 7 d",≥99.99%
same,% Intact of [^89Zr]Zr-Complex (n = 3),"[1]; Cu^2+, 0 h",≥99.99%
same,% Intact of [^89Zr]Zr-Complex (n = 3),"[1]; Cu^2+, 1 d",≥99.99%
same,% Intact of [^89Zr]Zr-Complex (n = 3),"[1]; Cu^2+, 3 d",≥99.99%
same,% Intact of [^89Zr]Zr-Complex (n = 3),"[1]; Cu^2+, 5 d",≥99.99%
same,% Intact of [^89Zr]Zr-Complex (n = 3),"[1]; Cu^2+, 7 d",≥99.99%
same,% Intact of [^89Zr]Zr-Complex (n = 3),"[1]; Fe^3+, 0 h",≥99.99%
same,% Intact of [^89Zr]Zr-Complex (n = 3),"[1]; Fe^3+, 1 d",≥99.99%
same,% Intact of [^89Zr]Zr-Complex (n = 3),"[1]; Fe^3+, 3 d",≥99.99%
same,% Intact of [^89Zr]Zr-Complex (n = 3),"[1]; Fe^3+, 5 d",≥99.99%
same,% Intact of [^89Zr]Zr-Complex (n = 3),"[1]; Fe^3+, 7 d",≥99.99%
same,demetallation when challenged with high concentrations of metal ions (in words),"[1]; Fe^3+, Co^2+, Zn^2+, Cu^2+, Mg^2+, Ga^3+ or Gd^3+ ions, seven-day time course",inert; also recorded: no demetallation
same,% Intact of [^89Zr]Zr-Complex (n = 3),"[1]; Ga^3+, 0 h",≥99.99%
same,% Intact of [^89Zr]Zr-Complex (n = 3),"[1]; Ga^3+, 1 d",≥99.99%
same,% Intact of [^89Zr]Zr-Complex (n = 3),"[1]; Ga^3+, 3 d",≥99.99%
same,% Intact of [^89Zr]Zr-Complex (n = 3),"[1]; Ga^3+, 5 d",≥99.99%
same,% Intact of [^89Zr]Zr-Complex (n = 3),"[1]; Ga^3+, 7 d",≥99.99%
same,% Intact of [^89Zr]Zr-Complex (n = 3),"[1]; Gd^3+, 0 h",≥99.99%
same,% Intact of [^89Zr]Zr-Complex (n = 3),"[1]; Gd^3+, 1 d",≥99.99%
same,% Intact of [^89Zr]Zr-Complex (n = 3),"[1]; Gd^3+, 3 d",≥99.99%
same,% Intact of [^89Zr]Zr-Complex (n = 3),"[1]; Gd^3+, 5 d",≥99.99%
same,% Intact of [^89Zr]Zr-Complex (n = 3),"[1]; Gd^3+, 7 d",≥99.99%
same,% Intact of [^89Zr]Zr-Complex (n = 3),"[1]; Mg^2+, 0 h",≥99.99%
same,% Intact of [^89Zr]Zr-Complex (n = 3),"[1]; Mg^2+, 1 d",≥99.99%
same,% Intact of [^89Zr]Zr-Complex (n = 3),"[1]; Mg^2+, 3 d",≥99.99%
same,% Intact of [^89Zr]Zr-Complex (n = 3),"[1]; Mg^2+, 5 d",≥99.99%
same,% Intact of [^89Zr]Zr-Complex (n = 3),"[1]; Mg^2+, 7 d",≥99.99%
same,% Intact of [^89Zr]Zr-Complex (n = 3),"[1]; Zn^2+, 0 h",≥99.99%
same,% Intact of [^89Zr]Zr-Complex (n = 3),"[1]; Zn^2+, 1 d",≥99.99%
same,% Intact of [^89Zr]Zr-Complex (n = 3),"[1]; Zn^2+, 3 d",≥99.99%
same,% Intact of [^89Zr]Zr-Complex (n = 3),"[1]; Zn^2+, 5 d",≥99.99%
same,% Intact of [^89Zr]Zr-Complex (n = 3),"[1]; Zn^2+, 7 d",≥99.99%
same,Biodistribution (%ID/g) Blood,[2]; 2 h p.i.,0.011 ± 0.001 %ID/g
same,Biodistribution (%ID/g) Bone,[2]; 2 h p.i.,0.032 ± 0.006 %ID/g
same,Biodistribution (%ID/g) Fat,[2]; 2 h p.i.,0.007 ± 0.003 %ID/g
same,Biodistribution (%ID/g) Heart,[2]; 2 h p.i.,0.021 ± 0.003 %ID/g
same,Biodistribution (%ID/g) Kidney,[2]; 2 h p.i.,1.053 ± 0.071 %ID/g
same,Biodistribution (%ID/g) Large intestine,[2]; 2 h p.i.,0.523 ± 0.112 %ID/g
same,Biodistribution (%ID/g) Liver,[2]; 2 h p.i.,0.238 ± 0.020 %ID/g
same,Biodistribution (%ID/g) Lung,[2]; 2 h p.i.,0.071 ± 0.006 %ID/g
same,Biodistribution (%ID/g) Muscle,[2]; 2 h p.i.,0.008 ± 0.003 %ID/g
same,Biodistribution (%ID/g) Pancreas,[2]; 2 h p.i.,0.011 ± 0.003 %ID/g
same,Biodistribution (%ID/g) Small intestine,[2]; 2 h p.i.,0.229 ± 0.039 %ID/g
same,Biodistribution (%ID/g) Spleen,[2]; 2 h p.i.,0.078 ± 0.008 %ID/g
same,Biodistribution (%ID/g) Stomach,[2]; 2 h p.i.,0.069 ± 0.008 %ID/g
same,Biodistribution (%ID/g) Blood,[2]; 4 h p.i.,0.008 ± 0.001 %ID/g
same,Biodistribution (%ID/g) Bone,[2]; 4 h p.i.,0.024 ± 0.004 %ID/g
same,Biodistribution (%ID/g) Fat,[2]; 4 h p.i.,0.006 ± 0.002 %ID/g
